Activity calls are given as the source filed them. How the calls were made is not given here.
Test system: CCRIS mutagenicity, Ames/micronucleus/aberration tests
Experiment: CCRIS mutagenicity studies

`CC1(C)COC1=O` was tested, and the mutagenic call (Test System: AMES SALMONELLA TYPHIMURIUM, Strain/Indicator: TA98, Metabolic Activation: HAMSTER, LIVER, S-9, AROCLOR 1254, Method: PREINCUBATION) was “inactive; negative”, the mutagenic call (Test System: AMES SALMONELLA TYPHIMURIUM, Strain/Indicator: TA98, Metabolic Activation: HAMSTER, LIVER, S-9, AROCLOR 1254, Method: STANDARD PLATE) was “inactive; negative” and the mutagenic call (Test System: AMES SALMONELLA TYPHIMURIUM, Strain/Indicator: TA98, Metabolic Activation: HAMSTER, LIVER, S-9, Method: PREINCUBATION) was “inactive; negative”. For the same compound, the mutagenic call (Test System: AMES SALMONELLA TYPHIMURIUM, Strain/Indicator: TA98, Metabolic Activation: HAMSTER, LIVER, S-9, Method: STANDARD PLATE) was “inactive; negative”, the mutagenic call (Test System: AMES SALMONELLA TYPHIMURIUM, Strain/Indicator: TA98, Metabolic Activation: MOUSE, LIVER, S-9, AROCLOR 1254, Method: PREINCUBATION) was “inactive; negative” and the mutagenic call (Test System: AMES SALMONELLA TYPHIMURIUM, Strain/Indicator: TA98, Metabolic Activation: MOUSE, LIVER, S-9, AROCLOR 1254, Method: STANDARD PLATE) was “inactive; negative”. For the same compound, the mutagenic call (Test System: AMES SALMONELLA TYPHIMURIUM, Strain/Indicator: TA98, Metabolic Activation: MOUSE, LIVER, S-9, Method: PREINCUBATION) was “inactive; negative”, the mutagenic call (Test System: AMES SALMONELLA TYPHIMURIUM, Strain/Indicator: TA98, Metabolic Activation: MOUSE, LIVER, S-9, Method: STANDARD PLATE) was “inactive; negative” and the mutagenic call (Test System: AMES SALMONELLA TYPHIMURIUM, Strain/Indicator: TA98, Metabolic Activation: NONE, Method: PREINCUBATION) was “inactive; negative”. The mutagenic call (Test System: AMES SALMONELLA TYPHIMURIUM, Strain/Indicator: TA98, Metabolic Activation: NONE, Method: STANDARD PLATE) was “inactive; negative”, the mutagenic call (Test System: AMES SALMONELLA TYPHIMURIUM, Strain/Indicator: TA98, Metabolic Activation: RAT, LIVER, S-9, AROCLOR 1254, Method: PREINCUBATION) was “inactive; negative” and the mutagenic call (Test System: AMES SALMONELLA TYPHIMURIUM, Strain/Indicator: TA98, Metabolic Activation: RAT, LIVER, S-9, AROCLOR 1254, Method: STANDARD PLATE) was “inactive; negative”. The mutagenic call (Test System: AMES SALMONELLA TYPHIMURIUM, Strain/Indicator: TA98, Metabolic Activation: RAT, LIVER, S-9, Method: PREINCUBATION) was “inactive; negative”, the mutagenic call (Test System: AMES SALMONELLA TYPHIMURIUM, Strain/Indicator: TA98, Metabolic Activation: RAT, LIVER, S-9, Method: STANDARD PLATE) was “inactive; negative” and the mutagenic call (Test System: AMES SALMONELLA TYPHIMURIUM, Strain/Indicator: TA100, Metabolic Activation: HAMSTER, LIVER, S-9, AROCLOR 1254, Method: STANDARD PLATE) was “active; positive”. For the same compound, the mutagenic call (Test System: AMES SALMONELLA TYPHIMURIUM, Strain/Indicator: TA100, Metabolic Activation: HAMSTER, LIVER, S-9, Method: STANDARD PLATE) was “active; positive”, the mutagenic call (Test System: AMES SALMONELLA TYPHIMURIUM, Strain/Indicator: TA100, Metabolic Activation: MOUSE, LIVER, S-9, AROCLOR 1254, Method: STANDARD PLATE) was “active; positive” and the mutagenic call (Test System: AMES SALMONELLA TYPHIMURIUM, Strain/Indicator: TA100, Metabolic Activation: MOUSE, LIVER, S-9, Method: STANDARD PLATE) was “active; positive”. The mutagenic call (Test System: AMES SALMONELLA TYPHIMURIUM, Strain/Indicator: TA100, Metabolic Activation: NONE, Method: STANDARD PLATE) was “active; positive”, the mutagenic call (Test System: AMES SALMONELLA TYPHIMURIUM, Strain/Indicator: TA100, Metabolic Activation: RAT, LIVER, S-9, AROCLOR 1254, Method: STANDARD PLATE) was “active; positive” and the mutagenic call (Test System: AMES SALMONELLA TYPHIMURIUM, Strain/Indicator: TA100, Metabolic Activation: RAT, LIVER, S-9, Method: STANDARD PLATE) was “active; positive”. For the same compound, the mutagenic call (Test System: AMES SALMONELLA TYPHIMURIUM, Strain/Indicator: TA1535, Metabolic Activation: HAMSTER, LIVER, S-9, AROCLOR 1254, Method: PREINCUBATION) was “inactive; negative”, the mutagenic call (Test System: AMES SALMONELLA TYPHIMURIUM, Strain/Indicator: TA1535, Metabolic Activation: HAMSTER, LIVER, S-9, Method: PREINCUBATION) was “inactive; negative” and the mutagenic call (Test System: AMES SALMONELLA TYPHIMURIUM, Strain/Indicator: TA1535, Metabolic Activation: MOUSE, LIVER, S-9, AROCLOR 1254, Method: PREINCUBATION) was “inactive; negative”. The mutagenic call (Test System: AMES SALMONELLA TYPHIMURIUM, Strain/Indicator: TA1535, Metabolic Activation: MOUSE, LIVER, S-9, Method: PREINCUBATION) was “inactive; negative”, the mutagenic call (Test System: AMES SALMONELLA TYPHIMURIUM, Strain/Indicator: TA1535, Metabolic Activation: NONE, Method: PREINCUBATION) was “inactive; negative” and the mutagenic call (Test System: AMES SALMONELLA TYPHIMURIUM, Strain/Indicator: TA1535, Metabolic Activation: RAT, LIVER, S-9, AROCLOR 1254, Method: PREINCUBATION) was “inactive; negative”. For the same compound, the mutagenic call (Test System: AMES SALMONELLA TYPHIMURIUM, Strain/Indicator: TA1535, Metabolic Activation: RAT, LIVER, S-9, Method: PREINCUBATION) was “inactive; negative”, the mutagenic call (Test System: AMES SALMONELLA TYPHIMURIUM, Strain/Indicator: TA1537, Metabolic Activation: HAMSTER, LIVER, S-9, AROCLOR 1254, Method: PREINCUBATION) was “inactive; negative” and the mutagenic call (Test System: AMES SALMONELLA TYPHIMURIUM, Strain/Indicator: TA1537, Metabolic Activation: HAMSTER, LIVER, S-9, AROCLOR 1254, Method: STANDARD PLATE) was “inactive; negative”. The mutagenic call (Test System: AMES SALMONELLA TYPHIMURIUM, Strain/Indicator: TA1537, Metabolic Activation: HAMSTER, LIVER, S-9, Method: PREINCUBATION) was “inactive; negative”, the mutagenic call (Test System: AMES SALMONELLA TYPHIMURIUM, Strain/Indicator: TA1537, Metabolic Activation: HAMSTER, LIVER, S-9, Method: STANDARD PLATE) was “inactive; negative” and the mutagenic call (Test System: AMES SALMONELLA TYPHIMURIUM, Strain/Indicator: TA1537, Metabolic Activation: MOUSE, LIVER, S-9, AROCLOR 1254, Method: PREINCUBATION) was “inactive; negative”. The mutagenic call (Test System: AMES SALMONELLA TYPHIMURIUM, Strain/Indicator: TA1537, Metabolic Activation: MOUSE, LIVER, S-9, AROCLOR 1254, Method: STANDARD PLATE) was “inactive; negative”, the mutagenic call (Test System: AMES SALMONELLA TYPHIMURIUM, Strain/Indicator: TA1537, Metabolic Activation: MOUSE, LIVER, S-9, Method: PREINCUBATION) was “inactive; negative” and the mutagenic call (Test System: AMES SALMONELLA TYPHIMURIUM, Strain/Indicator: TA1537, Metabolic Activation: MOUSE, LIVER, S-9, Method: STANDARD PLATE) was “inactive; negative”. For the same compound, the mutagenic call (Test System: AMES SALMONELLA TYPHIMURIUM, Strain/Indicator: TA1537, Metabolic Activation: NONE, Method: PREINCUBATION) was “inactive; negative”, the mutagenic call (Test System: AMES SALMONELLA TYPHIMURIUM, Strain/Indicator: TA1537, Metabolic Activation: NONE, Method: STANDARD PLATE) was “inactive; negative” and the mutagenic call (Test System: AMES SALMONELLA TYPHIMURIUM, Strain/Indicator: TA1537, Metabolic Activation: RAT, LIVER, S-9, AROCLOR 1254, Method: PREINCUBATION) was “inactive; negative”. The mutagenic call (Test System: AMES SALMONELLA TYPHIMURIUM, Strain/Indicator: TA1537, Metabolic Activation: RAT, LIVER, S-9, AROCLOR 1254, Method: STANDARD PLATE) was “inactive; negative”, the mutagenic call (Test System: AMES SALMONELLA TYPHIMURIUM, Strain/Indicator: TA1537, Metabolic Activation: RAT, LIVER, S-9, Method: PREINCUBATION) was “inactive; negative” and the mutagenic call (Test System: AMES SALMONELLA TYPHIMURIUM, Strain/Indicator: TA1537, Metabolic Activation: RAT, LIVER, S-9, Method: STANDARD PLATE) was “inactive; negative”. For the same compound, the mutagenic call (Test System: AMES SALMONELLA TYPHIMURIUM, Strain/Indicator: TA1538, Metabolic Activation: HAMSTER, LIVER, S-9, AROCLOR 1254, Method: PREINCUBATION) was “inactive; negative”, the mutagenic call (Test System: AMES SALMONELLA TYPHIMURIUM, Strain/Indicator: TA1538, Metabolic Activation: HAMSTER, LIVER, S-9, AROCLOR 1254, Method: STANDARD PLATE) was “inactive; negative” and the mutagenic call (Test System: AMES SALMONELLA TYPHIMURIUM, Strain/Indicator: TA1538, Metabolic Activation: HAMSTER, LIVER, S-9, Method: PREINCUBATION) was “inactive; negative”. For the same compound, the mutagenic call (Test System: AMES SALMONELLA TYPHIMURIUM, Strain/Indicator: TA1538, Metabolic Activation: HAMSTER, LIVER, S-9, Method: STANDARD PLATE) was “inactive; negative”, the mutagenic call (Test System: AMES SALMONELLA TYPHIMURIUM, Strain/Indicator: TA1538, Metabolic Activation: MOUSE, LIVER, S-9, AROCLOR 1254, Method: PREINCUBATION) was “inactive; negative” and the mutagenic call (Test System: AMES SALMONELLA TYPHIMURIUM, Strain/Indicator: TA1538, Metabolic Activation: MOUSE, LIVER, S-9, AROCLOR 1254, Method: STANDARD PLATE) was “inactive; negative”. For the same compound, the mutagenic call (Test System: AMES SALMONELLA TYPHIMURIUM, Strain/Indicator: TA1538, Metabolic Activation: MOUSE, LIVER, S-9, Method: PREINCUBATION) was “inactive; negative”, the mutagenic call (Test System: AMES SALMONELLA TYPHIMURIUM, Strain/Indicator: TA1538, Metabolic Activation: MOUSE, LIVER, S-9, Method: STANDARD PLATE) was “inactive; negative” and the mutagenic call (Test System: AMES SALMONELLA TYPHIMURIUM, Strain/Indicator: TA1538, Metabolic Activation: NONE, Method: PREINCUBATION) was “inactive; negative”. The mutagenic call (Test System: AMES SALMONELLA TYPHIMURIUM, Strain/Indicator: TA1538, Metabolic Activation: NONE, Method: STANDARD PLATE) was “inactive; negative”, the mutagenic call (Test System: AMES SALMONELLA TYPHIMURIUM, Strain/Indicator: TA1538, Metabolic Activation: RAT, LIVER, S-9, AROCLOR 1254, Method: PREINCUBATION) was “inactive; negative” and the mutagenic call (Test System: AMES SALMONELLA TYPHIMURIUM, Strain/Indicator: TA1538, Metabolic Activation: RAT, LIVER, S-9, AROCLOR 1254, Method: STANDARD PLATE) was “inactive; negative”. For the same compound, the mutagenic call (Test System: AMES SALMONELLA TYPHIMURIUM, Strain/Indicator: TA1538, Metabolic Activation: RAT, LIVER, S-9, Method: PREINCUBATION) was “inactive; negative”, the mutagenic call (Test System: AMES SALMONELLA TYPHIMURIUM, Strain/Indicator: TA1538, Metabolic Activation: RAT, LIVER, S-9, Method: STANDARD PLATE) was “inactive; negative” and the mutagenic call (Test System: E. COLI, Strain/Indicator: WP2 UVRA, Metabolic Activation: HAMSTER, LIVER, S-9, AROCLOR 1254, Method: PREINCUBATION) was “active; positive”. For the same compound, the mutagenic call (Test System: E. COLI, Strain/Indicator: WP2 UVRA, Metabolic Activation: HAMSTER, LIVER, S-9, Method: PREINCUBATION) was “active; positive”, the mutagenic call (Test System: E. COLI, Strain/Indicator: WP2 UVRA, Metabolic Activation: MOUSE, LIVER, S-9, AROCLOR 1254, Method: PREINCUBATION) was “active; positive” and the mutagenic call (Test System: E. COLI, Strain/Indicator: WP2 UVRA, Metabolic Activation: NONE, Method: PREINCUBATION) was “active; positive”. The mutagenic call (Test System: E. COLI, Strain/Indicator: WP2 UVRA, Metabolic Activation: RAT, LIVER, S-9, AROCLOR 1254, Method: PREINCUBATION) was “active; positive” and the mutagenic call (Test System: E. COLI, Strain/Indicator: WP2 UVRA, Metabolic Activation: RAT, LIVER, S-9, Method: PREINCUBATION) was “active; positive”.

— PubChem BioAssay AID1259407 (Chemical Carcinogenesis Research Information System (CCRIS), 2018)
